Measured values taken from the NIST ThermoML archive (doi:10.1021/je4002009).
± gives the expanded uncertainty stated by the source.

Assay: mn = molality of the nth substance listed, in mol/kg
Settings: 101 kPa, Liquid; for viscosity: Capillary tube (Ostwald / Ubbelohde) method

CN1CCCC1=O.Cc1ccc(S(=O)(=O)O)cc1 [1-methyl-2-pyrrolidinone p-toluenesulfonate] + O
Settings	mass density, 298.15 K [kg/m3]	mass density, 303.15 K [kg/m3]	mass density, 308.15 K [kg/m3]	viscosity, 298.15 K [mPa·s]	viscosity, 303.15 K [mPa·s]	viscosity, 308.15 K [mPa·s]
m1 = 0.0499	999.98 ± 0.76	998.53 ± 0.77	996.06 ± 0.79	0.9405 ± 0.011	0.8355 ± 0.0097	0.7579 ± 0.0088
m1 = 0.1012	1002.71 ± 0.78	1000.47 ± 0.76	998.66 ± 0.77	0.9707 ± 0.011	0.8613 ± 0.01	0.7776 ± 0.0091
m1 = 0.1588	1005.8 ± 0.81	1004.01 ± 0.8	1002.3 ± 0.78	0.9996 ± 0.012	0.8905 ± 0.01	0.8002 ± 0.0093
m1 = 0.1983	1007.95 ± 0.84	1006.37 ± 0.82	1004.65 ± 0.81	1.021 ± 0.012	0.9097 ± 0.011	0.8164 ± 0.0095
m1 = 0.2691	1011.73 ± 0.88	1010.16 ± 0.86	1008.34 ± 0.84	1.059 ± 0.012	0.9445 ± 0.011	0.8406 ± 0.0098
m1 = 0.3004	1013.31 ± 0.89	1011.73 ± 0.88	1009.85 ± 0.86	1.077 ± 0.013	0.9602 ± 0.011	0.8511 ± 0.0099
m1 = 0.3421	1015.42 ± 0.91	1013.71 ± 0.9	1011.83 ± 0.88	1.1 ± 0.013	0.9826 ± 0.011	0.8691 ± 0.01
m1 = 0.398	1018.29 ± 0.94	1016.41 ± 0.93	1014.42 ± 0.91	1.13 ± 0.013	1.007 ± 0.012	0.892 ± 0.01
m1 = 0.4495	1020.8 ± 0.97	1018.89 ± 0.95	1016.77 ± 0.93	1.155 ± 0.013	1.03 ± 0.012	0.9131 ± 0.011
m1 = 0.5139	1023.87 ± 1	1021.88 ± 0.98	1019.63 ± 0.96	1.191 ± 0.014	1.058 ± 0.012	0.9369 ± 0.011
m1 = 0.6053	1028.17 ± 1.1	1026.17 ± 1	1023.9 ± 1	1.241 ± 0.014	1.099 ± 0.013	0.9752 ± 0.011
m1 = 0.6615	1030.76 ± 1.1	1028.65 ± 1.1	1026.41 ± 1	1.272 ± 0.015	1.127 ± 0.013	0.9976 ± 0.012
m1 = 0.7504	1034.66 ± 1.1	1032.58 ± 1.1	1030.21 ± 1.1	1.319 ± 0.015	1.169 ± 0.014	1.036 ± 0.012
m1 = 0.7605	1035.06 ± 1.1	1033 ± 1.1	1030.65 ± 1.1	1.324 ± 0.015	1.173 ± 0.014	1.04 ± 0.012
m1 = 0.8335	1038.2 ± 1.2	1036.01 ± 1.1	1033.59 ± 1.1	1.366 ± 0.016	1.207 ± 0.014	1.072 ± 0.013
m1 = 0.9023	1041.05 ± 1.2	1038.67 ± 1.2	1036.34 ± 1.1	1.411 ± 0.017	1.244 ± 0.015	1.106 ± 0.013
m1 = 1.007	1045.23 ± 1.2	1042.61 ± 1.2	1040.36 ± 1.2	1.477 ± 0.017	1.299 ± 0.015	1.161 ± 0.014
m1 = 1.201	1052.61 ± 1.3	1050.61 ± 1.3	1048.17 ± 1.3	1.61 ± 0.019	1.409 ± 0.017	1.266 ± 0.015
